According to patent US20150087619A1, “METHOD OF MITIGATING VIRUS ASSOCIATED END-ORGAN DAMAGE” (CHIMERIX, INC., priority 2012, published 2015):
Entries after “also recorded” stand apart in the source; their conditions may differ.

Key:
[1] = system: CMV; assay: In vitro antiviral activity in cell culture; type: cell-based; details: Human betaherpesvirus 5
[2] = system: HHV-6(B); assay: In vitro antiviral activity in cell culture; type: cell-based
[3] = system: AdV; assay: In vitro antiviral activity in cell culture; type: cell-based
[4] = system: BKV; assay: In vitro antiviral activity in cell culture; type: cell-based
[5] = Safety in clinical trials; type: in vivo, human; details: extensive clinical trials
[6] = system: BKV; assay: Study HDP-CDV-201: BK viruria and viremia in post-HCT subjects; type: in vivo, human
Description: A HDP-CDV-201, a 9-11 week randomized, placebo-controlled, double-blind, dose-escalation clinical study (40 mg weekly [QW], 100 mg QW, 200 mg QW, 200 mg twice-weekly [BIW], and 100 mg BIW) of HDP-CDV for the prevention of BKV infection post-HCT was performed. Treatment was initiated at the time of engraftment and continued until Week 13 post-HCT.
A multicenter, randomized, double-blind, placebo-controlled, dose-escalation study of safety, tolerability, and ability of HDP-CDV to prevent or control AdV, BKV, and EBV infection and associated disorders was conducted. During enrollment of patients in the study, urine samples of candidate patients were routinely screened for BKV. Plasma was collected from patients who tested positive for BKV viruria in urine, and AdV, EBV and BKV level in the plasma was evaluated.
Subjects were tabulated according to treatment group (pooled HDP-CDV versus placebo) and BKV status (viruria positive or negative any time during treatment). Pairwise comparisons were performed using a Fisher's exact test. Data were pooled for HDP-CDV versus placebo groups due to the limited sample size. […] Data from the largest study cohort (HDP-CDV 100 mg BIW) are presented separately in some of the analyses as this dose as been selected for further development of HDP-CDV in Phase 3 trials.

[7] = system: VZV-BAC-Luc strain; type: in vivo, mouse
[8] = system: VZV; assay: Virus spread in VZV-infected cultures; type: cell-based; details: 1 day of 20 μg/mL in the medium, given on Day −1, 0, 2, or 3
[9] = clinical; details: male, human, plasma, 40 mg
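Wherever Cmax is given: plasma levels quantified by validated LC-MS/MS, LLOQ 0.1 ng/mL for HDP-CDV and 0.5 ng/mL for CDV, crossover design with 14-day washout between single doses.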

## CCCCCCCCCCCCCCCCOCCCOP(=O)(O)COC(CO)Cn1ccc(N)nc1=O (stereo not drawn) [HDP-CDV]
[1]
  EC50: 1 nM
[2]
  EC50: 7 nM
[3]
  EC50: 20 nM
[4]
  EC50: 130 nM
[5]
  myelosuppression or nephrotoxicity: has not been associated with either myelosuppression or nephrotoxicity
[6]; 40 mg QW dose
  antiviral effect: has not been shown to have antiviral activity; also recorded: no antiviral effect
[6]; BKU+ patients, FIG. 3
  BKV viral load and risk or incidence of end organ damage: effective in reducing BKV viral load and the risk or incidence of end organ damage
[6]; Cohort 4A 100 mg BIW
  >10,000 confirmed, new onset (viremia): 0
[6]; Cohort 4A 100 mg BIW (1/22)
  Viruria >1.0E+10 but only at posttreatment week: (4.5%)
[6]; Cohort 4A 100 mg BIW (3/22)
  Viremia sustained, but no viremia at baseline: (13.6%)
[6]; Cohort 4A 100 mg BIW (4/22)
  Viremia >1000 copies/mL confirmed: (18.2%)
[6]; Cohort 4A 100 mg BIW (5/22)
  Viremia sustained (at least 2 consecutive values positive): (22.7%)
[6]; Cohort 4A 100 mg BIW (6/22)
  Viremia at any time during treatment: (27.3%)
[6]; Cohort 4A 100 mg BIW, BKV positive urine at baseline (4/22)
  Viruria >1.0E+10 at any time during treatment: (18.2%)
[6]; Cohort 4a (100 mg BIW), 5/22
  BK viremia: 23%
[6]; Pooled HDP-CDV cohorts (4/77)
  Viruria >1.0E+10 but only at posttreatment week: (5.2%)
[6]; Pooled HDP-CDV cohorts (5/77)
  >10,000 confirmed, new onset (viremia): (6.5%)
[6]; Pooled HDP-CDV cohorts (23/77)
  Viremia sustained, but no viremia at baseline: (29.9%)
[6]; Pooled HDP-CDV cohorts (31/77)
  Viremia >1000 copies/mL confirmed: (26%)
[6]; Pooled HDP-CDV cohorts (32/77)
  Viremia sustained (at least 2 consecutive values positive): (41.6%)
[6]; Pooled HDP-CDV cohorts (40/77)
  Viremia at any time during treatment: (47%)
[6]; Pooled HDP-CDV cohorts, BKV positive urine at baseline (26/77)
  Viruria >1.0E+10 at any time during treatment: (33.8%)
[6]; cohort 1 (40 mg QW)
  subjects who developed viremia >10,000 copies/mL: 1
[6]; cohort 1 (40 mg QW), 5/8
  BK viremia: 62%
[6]; cohort 2 (100 mg QW)
  subjects who developed viremia >10,000 copies/mL: 1
[6]; cohort 3 (200 mg QW)
  subjects who developed viremia >10,000 copies/mL: 3
[6]; cohort 4 (200 mg BIW)
  subjects who developed viremia >10,000 copies/mL: 3
[6]; cohort 4a (100 mg BIW)
  subjects who developed viremia >10,000 copies/mL: 0
[6]; negative for BK viruria at baseline, Cohort 1 (40 mg QW)
  subjects with high levels of BK viruria: 0 subject
[6]; negative for BK viruria at baseline, Cohort 2 (100 mg QW)
  subjects with high levels of BK viruria: 1 subject
[6]; negative for BK viruria at baseline, Cohort 3 (200 mg QW)
  subjects with high levels of BK viruria: 2 subject
[6]; negative for BK viruria at baseline, Cohort 4 (200 mg BIW)
  subjects with high levels of BK viruria: 0 subject
[6]; negative for BK viruria at baseline, Cohort 4a (100 mg BIW)
  subjects with high levels of BK viruria: 0 subject
[6]; negative for BK viruria at baseline, pooled HDP-CDV
  subjects with viremia: one
[6]; patients (67%) who did not develop end organ disease, FIG. 3
  viral load (maximum BKV viruria): 2.0×10^8
[6]; patients who developed end organ disease after treatment (33%), FIG. 3
  viral load (maximum BKV viruria): 3.2×10^8
[6]; patients who developed end organ disease after treatment, FIG. 3
  viral load compared to patients who received placebo: significantly lower viral load
[6]; subjects negative for BK viruria at baseline (9/73), placebo 21%
  sustained BK viruria (at least 4 weeks with BK positive urine measurements): 12%
[6]; subjects negative for BK viruria at baseline (10/73), placebo 25%
  confirmed new onset BK viruria during treatment: 14%
[6]; subjects negative for BK viruria at baseline (16/73), placebo 29%
  measurable BK viruria on at least one occasion: 22%
[7]; 1.25, 2.5, and 5.0 mg/kg, 8 doses once daily
  viral load (qPCR): dose dependent
[7]; SCID-Hu mouse model of VZV replication
  efficacy in vivo: highly effective
[8]
  reduction of virus spread: 2-3 Log10
[9]; oral
  AUC(0-inf): 476 ng·h/mL
  AUC(0-t): 457 ng·h/mL
  Cmax: 70.5 ng/mL
[9]; po
  AUC(0-inf): 574 ng·h/mL
  AUC(0-t): 549 ng·h/mL
  Cmax: 77.7 ng/mL
  Vd/F: 831 L
  half-life: 8.06 h
